# Legend:
# B16-OVA melanoma = experiment: Tumor growth of B16-OVA tumors after adoptive transfer of inhibitor-treated OT1 T-cells; assay type: in vivo, mouse; conditions: mice adoptively transferred with T-cells treated in vitro
# Procedure: Example 5. In vivo tumor model to characterize the phenotype and efficacy of cultured CD8+ T-cells upon adoptive cell transfer. An in vivo tumor model was used to determine the efficacy of in vitro cultured CD8+ T-cells treated with an IDH2 inhibitor in eliminating cancer cells (FIG. 10). B16-OVA melanoma cells (see Example 1) were cultured in DMEM (GIBCO) with 10% FCS and 1% P/S before their subcutaneous injection into the mouse flank. Each mouse received 100′000 cells in a volume of 200 μl of PBS. 6 days after B16-OVA cell injection, tumors were measured, mice were randomized and lymphodepleted by irradiation (5 Gray). 7 days after B16-Ova cell injection, mice were adoptively transferred with activated CD45.1^+ OT-1 splenocytes. […] Live splenocytes, almost exclusively consisting of CD8+ T-cells (about 98%), were counted with Trypan blue stain 0.4%. […]
# Following the adoptive cell transfer (ACT), mice received a vaccination of CpG (50 μg/mouse) and N4 Ova peptide (10 μg/mouse) diluted in PBS to obtain a total volume of 100 μl/mouse, injected subcutaneously at the tail base to further stimulate the transferred cells. […] Tumors were measured every 2 days with a digital caliper and the tumor volume was calculated according to the formula: V=π×[d2×D]/6, wherein d is the smallest tumor axis and D is the largest tumor axis.
# OT2 CD4 T cells = experiment: CD62L flow cytometry of OT2 CD4 T cells activated by co-culture with dendritic cells; assay type: cell-based, mouse; conditions: 5 μM for 7 days, day 7, versus DMSO
# From the text: A new experiment has been performed on mouse T cells in order to further strengthen our claim that IDH2 inhibition also promotes memory marker expression in CD4 T cells. As indicated in the experimental scheme (FIG. 17A), we activated CD4 T cells from OT2 mice by co-culture with dendritic cells. OT2 mice are transgenic for an αβTCR recognizing specifically a chicken ovalbumine peptide 323-339 associated with the mouse MHC class II molecule I-A^b. We activated OT2 CD4 T cells by co-culture with dendritic cells loaded with […] of the ovalbumine peptide in the presence of 100 IU/ml recombinant human IL2 in the presence of 5 μM AG221 or DMSO control. After 4 days, cells were collected, washed and split, and brought back in culture with 100 IU/ml rhIL2 and 5 μM AG221 or DMSO control.
# [1] = test system: transferred CD8+ CD45.1+ OT1 T-cells; experiment: Phenotype of adoptively transferred OT1 CD8+ T-cells in blood of B16-OVA tumor-bearing mice; assay type: in vivo, mouse
# From the text: Antibody panel to determine the frequency and differentiation and activation state of adoptively transferred T-cells in the blood (see Example 6): CD8-PE-texas-Red, CD45.1-Pacific blue, CD45.2-FITC, CD127-PE, KLRG1-PE-Cy7, CD62L-APC, CD44-APC-Cy7, and CD27-PerCP-Cy5.5.
# Example 5. In vivo tumor model to characterize the phenotype and efficacy of cultured CD8+ T-cells upon adoptive cell transfer. An in vivo tumor model was used to determine the efficacy of in vitro cultured CD8+ T-cells treated with an IDH2 inhibitor in eliminating cancer cells (FIG. 10). B16-OVA melanoma cells (see Example 1) were cultured in DMEM (GIBCO) with 10% FCS and 1% P/S before their subcutaneous injection into the mouse flank. Each mouse received 100′000 cells in a volume of 200 μl of PBS. 6 days after B16-OVA cell injection, tumors were measured, mice were randomized and lymphodepleted by irradiation (5 Gray). 7 days after B16-Ova cell injection, mice were adoptively transferred with activated CD45.1^+ OT-1 splenocytes. The CD45.1^+ OT-1 splenocytes had been cultured in vitro for 7 days as described in Example 2, wherein the IDH2 inhibitor was AG221, collected and purified on a Ficoll gradient to separate dead and live splenocytes. Live splenocytes, almost exclusively consisting of CD8+ T-cells (about 98%), were counted with Trypan blue stain 0.4%. 100′000 live splenocytes were transferred into CD45.2^+ host mice by tail vein injection.
# Following the adoptive cell transfer (ACT), mice received a vaccination of CpG (50 μg/mouse) and N4 Ova peptide (10 μg/mouse) diluted in PBS to obtain a total volume of 100 μl/mouse, injected subcutaneously at the tail base to further stimulate the transferred cells. An additional no-ACT control group received only a PBS injection (neither cells, CpG nor peptide). Tumors were measured every 2 days with a digital caliper and the tumor volume was calculated according to the formula: V=π×[d2×D]/6, wherein d is the smallest tumor axis and D is the largest tumor axis.
# Example 6. Maintenance of the CD8+ T-cell memory phenotype in vivo. Blood samples were collected at day 14 and day 18 post tumor engraftment (see Example 5). […] Transferred CD8+ T-cells were CD8^+ and CD45.1^+. Among those, MPECs were KLRG1^low and CD127^+, SLECs were KLRG1^high and CD127^−, and TCM were CD44^+ and CD62L^+.
# [2] = day 14, compared to DMSO control
smiles,measurement,setting,value
"CC(C)(O)CNc1nc(Nc2ccnc(C(F)(F)F)c2)nc(-c2cccc(C(F)(F)F)n2)n1 [AG221, 2-methyl-1-[[4-[6-(trifluoromethyl)pyridin-2-yl]-6-[[2-(trifluoromethyl)pyridin-4-yl]amino]-1,3,5-triazin-2-yl]amino]propan-2-ol]","tumor burden, in particular tumor growth",B16-OVA melanoma,significantly reduced
same,CD62L-positive population of CD4 T cells,OT2 CD4 T cells,strong increase
same,frequency of transferred T-cells,"[1]; day 14 (day 7 post ACT), cells treated in vitro before ACT, versus DMSO",significantly higher
same,proportion of central memory T cells (TCM) within transferred CD8+ T-cells,[1]; [2],significantly higher
same,proportion of memory precursor effector cells (MPECs) within transferred CD8+ T-cells,[1]; [2],significantly higher
same,proportion of short-lived effector cells (SLECs) within transferred CD8+ T-cells,[1]; [2],significantly lower

# — patent publication US20220325242A1, “IDH2 INHIBITION FOR PRODUCING T-CELLS AND B-CELLS WITH A MEMORY PHENOTYPE” (Universite de Lausanne, priority 2019, published 2022)
